Measurements published in patent publication US9139613B2, “Macrocyclic compounds and methods for their production” (NEUROVIVE PHARMACEUTICAL AB, priority 2011, dated 2015).
Read-outs that look alike come from different tables or passages of the source.

Legend:
[1] = Mouse in vivo oral and iv PK; details: male, whole blood, CD1 mice
Procedure: For sanglifehrin analogues, whole blood is analysed. Compounds are formulated in 5% ethanol/5% cremophor EL/90% saline for both p.o. and i.v. administration. Groups of 3 male CD1 mice are dosed with either 1 mg/kg i.v. or 5 or 10 mg/kg p.o. Blood samples (40 μL) are taken via saphenous vein, pre-dose and at 0.25, 0.5, 2, 8, and 24 hours, and diluted with an equal amount of dH20 and put on dry ice immediately. Samples are stored at −70° C. until analysis. The concentration of the compound of the invention or parent compound in the sample is determined via LCMS as follows: 20 μL of blood:H2O (1:1, v/v)/PK sample is added with 20 μL Internal standard (hydroxyl macrocycle, 6) at 100 ng/mL, 20 μL working solution/MeOH and 150 μL of ACN, vortexed for 1 minute at 1500 rpm, and centrifuged at 12000 rpm for 5 min. The supernatant is then injected into LC-MS/MS. The time-course of blood concentrations is plotted and used to derive area under the whole blood concentration-time curve (AUC—which is directly proportional to the total amount of unchanged drug that reaches the systemic circulation). These values are used to generate PK parameters where possible.
To assess the pharmacokinetics of the compounds in an in vivo setting, compounds were dosed po at 10 or 5 mg/kg and iv at 1 mg/kg to groups of CD1 mice. Pharmacokinetic analysis was carried out as described in the general methods. […]

[2] = tested on: HCV genotype 1b replicon in Huh5.2 cells; assay: HCV genotype 1b replicon assay using Huh5.2 cells (antiviral effect, luciferase); format: cell-based, Hepatitis C virus; details: for EC50: Hepatitis C virus, Huh-5-2, genotype 1b replicon, Huh5.2 cells, 72 hours; for Selectivity index (CC50/EC50): Huh5.2 replicon assay
Procedure: (§1) Dilution series are prepared; each dilution series is performed in at least duplicate.
For the evaluation of antiviral effects, assay medium is aspirated and the cell monolayers are washed with PBS. The wash buffer is aspirated, 25 μL of Glo Lysis Buffer (Cat. N°. E2661, Promega) is added after which lysis is allowed to proceed for 5 min at room temperature. Subsequently, 50 μL of Luciferase Assay System (Cat. N^o. E1501, Promega) is added and the luciferase luminescence signal is quantified immediately (1000 ms integration time/well, Safire^2, Tecan). Relative luminescence units are converted to percentage of untreated controls.
(§2) The selectivity index (SI), indicative of the therapeutic window of the compound, is calculated as CC50/EC50.

[3] = Anti-metabolic effect (MTS) in Huh5.2 replicon cells; details: human
Procedure: as §1, §2

[4] = target: T1, CypA Peptidyl Prolyl cis-trans Isomerase (PPlase) (Homo sapiens, UniProt P62937); assay: Inhibition of CypA PPIase activity; format: biochemical
T1 construct: GST (cleaved yes); made in house
Procedure: An alternative methodology for analysing interaction with cyclophilins is described as follows: The PPlase activity of recombinant CypA or D, produced by thrombin cleavage of GST-CypA or D, was determined by following the rate of hydrolysis of N-succinyl-Ala-Ala-Pro-Phe-p-nitroanilide by chymotrypsin. Chymotrypsin only hydrolyzes the trans form of the peptide, and hydrolysis of the cis form, the concentration of which is maximized by using a stock dissolved in trifluoroethanol containing 470 mM LiCl, is limited by the rate of cis-trans isomerization. CypA or D was equilibrated for 1 h at 5° C. with selected test article using a drug concentration range from 0.1 to 20 nM. The reaction was started by addition of the peptide, and the change in absorbance was monitored spectrophotometrically at 10 data points per second. The blank rates of hydrolysis (in the absence of CypA or D) were subtracted from the rates in the presence of CypA or D. The initial rates of the enzymatic reaction were analyzed by first-order regression analysis of the time course of the change in absorbance.

[5] = tested on: HIV; assay: HIV antiviral assay using HeLa cells; format: cell-based, Human Immunodeficiency Virus
[6] = immunosuppressive activity; cited from earlier work

T1 sequence (P62937 whole entry): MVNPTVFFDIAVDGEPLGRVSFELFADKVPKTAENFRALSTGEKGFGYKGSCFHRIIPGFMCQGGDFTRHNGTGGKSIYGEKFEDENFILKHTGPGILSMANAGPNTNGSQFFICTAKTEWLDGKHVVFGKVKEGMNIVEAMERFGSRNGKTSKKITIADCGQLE

Row | Structure (SMILES) | EC50 [2] | Selectivity index (CC50/EC50) [2] | CC50 at 72 h [3] | IC50 ([4]; read-out: CypA PPIase IC50) | also measured
1 | CON(C)C(=O)/C=C/C=C(\C)[C@@H]1C/C=C/C=C/[C@H](O)[C@H](C)[C@@H](O)[C@@H](CCC(C)=O)C(=O)N[C@@H](C(C)C)C(=O)N[C@@H](Cc2cc(O)cc(F)c2)C(=O)N2CCCC(N2)C(=O)O1 (stereo partly shown) [Compound 23] | 67 nM | >1493 | > 100000 nM | 0.33 nM | clearance ([1]; iv at 1 mg/kg): 0.65 mL/min/kg; AUC(0-t) ([1]; po, dose level 5 mg/kg, read-out: po AUClast): 2760 ng·h/mL
2 | CC(=O)CC[C@H]1C(=O)N[C@@H](C(C)C)C(=O)N[C@@H](Cc2ccc(C)c(O)c2)C(=O)N2CCCC(N2)C(=O)O[C@H](/C(C)=C/C=C/C(=O)N2CCCCO2)C/C=C/C=C/[C@H](O)[C@H](C)[C@H]1O (stereo partly shown) [Compound 27] | 121 nM | >826 |  | 0.35 nM | CC50 at 72 h ([3]; Huh5.2 cells containing the HCV genotype 1b replicon): > 100000 nM
3 | CC(=O)CC[C@H]1C(=O)N[C@@H](C(C)C)C(=O)N[C@@H](Cc2cc(O)cc(F)c2)C(=O)N2CCCC(N2)C(=O)O[C@H](/C(C)=C/C=C/C(=O)Nc2ccccn2)C/C=C/C=C/[C@H](O)[C@H](C)[C@H]1O (stereo partly shown) [Compound 25] | 66 nM | >1515 | > 100000 nM |  | IC50 [4]: 1.15 nM
4 | C[C@H](Cn1cnc2c(N)ncnc21)OCP(=O)(O)O [Tenofovir] |  |  |  |  | EC50 [5]: 1050 nM
5 | CC[C@H]1C[C@H](C)[C@@]2(NC1=O)O[C@@H](C[C@H](O)[C@@H](C)CC/C=C/C=C(\C)[C@@H]1C/C=C/C=C/[C@H](O)[C@H](C)[C@@H](O)[C@@H](CCC(C)=O)C(=O)N[C@@H](C(C)C)C(=O)N[C@@H](Cc3cccc(O)c3)C(=O)N3CCC[C@H](N3)C(=O)O1)[C@H](C)[C@H](O)[C@@H]2C [Sanglifehrin A, 5, Sanglifehrin A] |  |  |  |  | less potent than Cyclosporine A [6]: 10 fold
